Source: article PMC7496931, “Activation of Sirtuin 2 Inhibitors Employing Photoswitchable Geometry and Aqueous Solubility” (Chemmedchem, 2020)
Like-named read-outs stand apart in the source and are kept apart here. One block for each compound: values may come before it.

Key:
Sirt1 = target: T1, Sirt1 (Homo sapiens, UniProt Q96EB6); experiment: Fluorescence-based ZMAL deacetylase activity assay, Sirt1; assay type: biochemical; settings: non-irradiated
T1 construct: Expression and purification of Sirt1_133−747, Sirt2_56−356, and Sirt3_118−395 was carried out as described previously; made in house
T1 sequence (Q96EB6 133-747): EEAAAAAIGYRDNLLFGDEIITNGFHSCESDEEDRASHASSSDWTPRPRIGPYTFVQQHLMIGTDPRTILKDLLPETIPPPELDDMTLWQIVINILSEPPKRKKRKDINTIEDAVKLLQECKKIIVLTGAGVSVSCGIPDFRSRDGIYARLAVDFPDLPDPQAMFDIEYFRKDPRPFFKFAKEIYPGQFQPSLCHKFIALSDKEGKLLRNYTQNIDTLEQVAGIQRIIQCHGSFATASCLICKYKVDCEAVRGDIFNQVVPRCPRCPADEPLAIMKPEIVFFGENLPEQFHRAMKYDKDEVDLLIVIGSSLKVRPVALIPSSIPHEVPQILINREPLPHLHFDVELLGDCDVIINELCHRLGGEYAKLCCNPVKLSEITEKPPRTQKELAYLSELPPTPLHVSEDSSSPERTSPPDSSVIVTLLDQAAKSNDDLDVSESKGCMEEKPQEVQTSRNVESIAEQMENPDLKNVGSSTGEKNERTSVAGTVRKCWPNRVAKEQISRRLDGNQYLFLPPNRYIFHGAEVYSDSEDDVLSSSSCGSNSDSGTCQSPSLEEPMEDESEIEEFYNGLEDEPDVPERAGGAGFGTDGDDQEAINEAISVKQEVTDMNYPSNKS
Description: (§1) The effect of the compounds on deacetylase activity of three human sirtuin isotypes (Sirt1–3) was investigated by a homogeneous fluorescence‐based assay, using (Z)‐Lys(acetyl)‐AMC (ZMAL) as substrate. In order to determine the impact of photoisomerization, the respective compounds were irradiated (365 nm, 5 min) in DMSO prior to incubation in the enzyme assay mixture. The results of the irradiated probes were finally compared to non‐irradiated measurements.
(§2) Cloning, expression and purification of recombinant proteins: Expression and purification of Sirt1_133−747, Sirt2_56−356, and Sirt3_118−395 was carried out as described previously.27 Identity and purity were verified by SDS‐PAGE.
(§3) Fluorescence‐based activity assay: The inhibitory effect of compounds on Sirt1–3 was detected via a previously reported fluorescence‐based assay.29 The synthetic substrate (Z)‐Lys(acetyl)‐AMC (ZMAL) is deacetylated by sirtuins, followed by tryptic digestion and thereby release of 7‐aminomethylcoumarin, leading to a fluorescent readout. Inhibition was determined by comparing percentage substrate conversion to a DMSO control after subtraction of the blank fluorescence signal. All compounds were tested at 100 or 50 μM and 10 μM respectively. […] IC50 values were calculated with OriginPro 9.0 G using a non‐linear regression to fit the dose response curve (Figure S6). An enzyme‐free blank control and a 100 % conversion control using AMC instead of ZMAL were measured as well. Inhibition measurements were performed in biological duplicates for all compounds. […]
(§4) Fluorescence-Based Activity Assay (ZMAL-Assay)
(§5) The influence of the synthesized compounds on the deacetylase activity of the class I sirtuins Sirt1–3 was determined in a homogenous fluorescence-based enzyme assay, using the artificial substrate Z-(Ac)Lys-AMC (ZMAL). ZMAL is processed by sirtuins yielding Z-Lys-AMC.
(§6) The latter is subsequently cleaved by tryptic digestion, releasing 7-amino-4-methylcoumarin (AMC), excitation of which leads to a fluorescent read out (λex=390 nm; λem=460 nm). Instead, […]
(§7) contribute to the fluorescence signal. Therefore, the fluorescence intensity is proportional to the activity of the respective sirtuin.
(§8) After subtraction of the blank fluorescence signal (without enzyme) from the signal of the respective probe, the residual signal intensity is related to a 100 % conversion control (AMC), […]
(§9) yielding the percentage substrate conversion. Comparison of the determined substrate conversion with a no-inhibition DMSO control yields the percentage inhibition at the respective […]
(§10) For determination of IC50, inhibitory activity of the respective compound was determined at 8 to 10 distinct concentrations. The measured values were analysed by a non-linear fit to the dose-response curve using a four parameter logistic model (Figure S6):
(§11) Figure S6: Non-linear regression of the dose-response curves of compounds 15c and 15f at the thermal equilibrium (∆, black) and after 5 minutes of 365 nm irradiation (red). […]
A maximal polarization control using just DMSO and a minimal polarization control using 1 µL of the 400 µM solution of 22 instead of inhibitor were performed as well as a blank control containing 1 µL of DMSO in 19 µL assay buffer. The mixture was incubated 10 min at 37 °C […]
(§12) (1 picture or pasted object on this page, not shown here)

Sirt2 [1] = target: T2, Sirt2 (Homo sapiens, UniProt Q8IXJ6); experiment: Fluorescence-based ZMAL deacetylase activity assay, Sirt2; assay type: biochemical; settings: non-irradiated; for IC50: read-out: Sirt2 inhibition, IC50; for inhibition at 10 µM / inhibition at 100 µM: read-out: Sirt2 inhibition, percent inhibition relative to controls
T2 construct: Expression and purification of Sirt1_133−747, Sirt2_56−356, and Sirt3_118−395 was carried out as described previously; made in house
T2 sequence (Q8IXJ6 56-356): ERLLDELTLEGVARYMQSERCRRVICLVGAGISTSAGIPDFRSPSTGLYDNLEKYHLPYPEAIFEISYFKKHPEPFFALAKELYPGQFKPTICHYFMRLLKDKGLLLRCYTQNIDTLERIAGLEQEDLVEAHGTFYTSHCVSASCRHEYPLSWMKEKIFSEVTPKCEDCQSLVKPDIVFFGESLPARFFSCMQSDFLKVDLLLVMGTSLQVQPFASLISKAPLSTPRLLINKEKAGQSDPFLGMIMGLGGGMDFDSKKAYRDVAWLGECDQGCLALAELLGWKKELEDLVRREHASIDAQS
Description: as §1, §2, §3, §4, §5, §6, §7, §8, §9, §10, §11
(§13) A maximal polarization control using just DMSO and a minimal polarization control using 1 µL of the 400 µM solution of 22 instead of inhibitor were performed as well as a blank control containing 1 µL of DMSO in 19 µL assay buffer. The mixture was incubated 10 min at 37 °C

Sirt3 = target: T3, Sirt3 (Homo sapiens, UniProt Q9NTG7); experiment: Fluorescence-based ZMAL deacetylase activity assay, Sirt3; assay type: biochemical; settings: non-irradiated; for IC50: read-out: Sirt3 inhibition, IC50
T3 construct: Expression and purification of Sirt1_133−747, Sirt2_56−356, and Sirt3_118−395 was carried out as described previously; made in house
T3 sequence (Q9NTG7 118-395): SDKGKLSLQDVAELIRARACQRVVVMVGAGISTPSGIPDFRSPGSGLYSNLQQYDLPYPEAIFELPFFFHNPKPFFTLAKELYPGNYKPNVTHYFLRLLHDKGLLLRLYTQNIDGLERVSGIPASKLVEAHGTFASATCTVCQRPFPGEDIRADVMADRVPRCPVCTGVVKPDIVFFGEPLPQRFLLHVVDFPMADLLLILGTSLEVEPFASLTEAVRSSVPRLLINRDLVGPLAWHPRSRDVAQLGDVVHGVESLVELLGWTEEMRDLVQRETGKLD
Description: as §1, §2, §3, §4, §5, §6, §7, §8, §9, §10, §11, §13

[2] = UV/Vis spectra and half-life of thermal Z→E isomerization; assay type: physicochemical
Description: Photochemistry: All photoisomerization experiments were conducted under ruby light of 630 nm and total exclusion of daylight. Illumination was executed using a Bio‐Link 254 Crosslinker from Vilber‐Lourmat equipped with six Vilber‐Lourmat T8‐L lamps (8 W, 365 nm). Visible light radiation of 630 nm (ruby) and 452 nm (blue) was derived from a Paulmann FlexLED 3D strip. All compounds were irradiated in solution using spectrophotometric grade solvents. Photoisomerization and UV/Vis‐spectra measurement was conducted in quartz glass cuvettes (114‐QS, Hellma Analytics) at room temperature.
UV/Vis Spectra and Half-Life of Thermal Isomerization
The half-life of the thermal Z→E isomerization after 5 minutes of 365 nm irradiation was determined by UV/Vis-spectroscopy. Therefore, solutions of the respective compounds (50 µM) in 5%, 50% or 90% DMSO in enzyme assay buffer (v/v) were prepared. An initial spectrum of the thermal equilibrium was recorded. After 5 minutes of irradiation with 365 nm the increase of absorbance at the thermal equilibrium maximum (λ∆max) was recorded as exemplified by compound 15c (Figure S3). Absorbance at λ = λ ∆max was plotted as a function of time. Non-linear regression yielded the half-life of the thermal Z→E isomerization (Table S1). For extrapolation of the reaction kinetics, the plateau value was set to the initial absorbance at λ=λ∆max. The following equation was used for non-linear regression:
y = (y0 − Plateau)e−kx + Plateau
Figure S3: Left: UV-Vis spectrum of 15c (50 µM) in assay buffer (5% DMSO, v/v) at the thermal equilibrium (∆) and the photostationary state (PSS) after UV irradiation (365 nm). Right:
Absorbance of 15c (50 µm) in assay buffer (5% DMSO, v/v) at λ∆max = 328 nm after 5 minutes of UV (365 nm) irradiation.
as §12

Sirt2 [3] = target: T2, Sirt2; parameters: method as in PMID 29685963; settings: lead 3, previously published; read-out: Sirt2 inhibition, IC50; cited from earlier work
[4] = read-out: Sirt1 inhibition, percent inhibition relative to controls
[5] = read-out: Sirt3 inhibition, percent inhibition relative to controls

Structure (SMILES): CN(C)c1ccc(/N=N/c2cncc(C(N)=O)c2)cc1 [7 e]
inhibition at 10 µM (Sirt1; [4]): 17%
inhibition at 10 µM (Sirt2 [1]): 54%
inhibition at 10 µM (Sirt3; [5]): 66%

Structure (SMILES): CNC(=O)c1cncc(/N=N/c2cc(C)c(N)c(C)c2)c1 [12 a]
inhibition at 100 µM (Sirt1; @ 100 μM, read-out: Sirt1 inhibition, percent inhibition relative to controls): 33%
inhibition at 100 µM (Sirt2 [1]): 45%
inhibition at 100 µM (Sirt3; [5]): 45%

Structure (SMILES): CCNC(=O)c1cncc(/N=N/c2cc(C)c(N)c(C)c2)c1 [12 b]
Sirt1 inhibition (class) (Sirt1): n.i. (n.i.: no inhibition detected (<30 % @ 100 μM))
inhibition at 10 µM (Sirt2 [1]): 16%
inhibition at 10 µM (Sirt3; [5]): 11%

Structure (SMILES): CCCCNC(=O)c1cncc(/N=N/c2cc(C)c(N)c(C)c2)c1 [12 c]
Sirt1 inhibition (class) (Sirt1): n.i. (n.i.: no inhibition detected (<30 % @ 100 μM))
inhibition at 10 µM (Sirt2 [1]): 17%
inhibition at 10 µM (Sirt3; [5]): 11%

Structure (SMILES): Cc1cc(/N=N/c2cncc(C(=O)NCCO)c2)cc(C)c1N [12 d]
Sirt1 inhibition (class) (Sirt1): n.i. (n.i.: no inhibition detected (<30 % @ 100 μM))
inhibition at 100 µM (Sirt2 [1]): 43%
inhibition at 100 µM (Sirt3; [5]): 43%

Structure (SMILES): NC(=O)c1cncc(OCc2cccc(/N=N/c3ccc(N4CCOCC4)cc3)c2)c1 [20 d]
melting point: 202.1 °C
Sirt1 inhibition (class) (Sirt1): n.i. (n.i.: no inhibition detected (<30 % @ 100 μM))
inhibition at 10 µM (Sirt2 [1]): 49%
IC50 (Sirt2 [1]): ~10 µM
inhibition at 10 µM (Sirt3; [5]): 33%
thermal Z→E isomerization (in words) ([2]; aqueous solution): rapid thermal Z→E isomerization

Structure (SMILES): Cc1cc(O)cc(C)c1/C=C/c1cncc(C(N)=O)c1 [compound 3]
IC50 (Sirt2 [3]): 25 µM

Structure (SMILES): CCOC(=O)c1cncc(/N=N/c2cc(C)c(N)c(C)c2)c1 [compound 11]
Sirt1 inhibition (class) (Sirt1): n.i. (n.i.: no inhibition detected (<30 % @ 100 μM))
Sirt2 inhibition (class) (Sirt2 [1]): n.i. (n.i.: no inhibition detected (<30 % @ 100 μM))
Sirt3 inhibition (class) (Sirt3): n.i. (n.i.: no inhibition detected (<30 % @ 100 μM))

Further lines, with some results ahead:

melting point: 190.6 °C
Structure (SMILES): COC(=O)c1cncc(/N=N/c2cc(C)c(N)c(C)c2)c1 [6 f]
Sirt1 inhibition (class) (Sirt1): n.i. (n.i.: no inhibition detected (<30 % @ 100 μM))
Sirt2 inhibition (class) (Sirt2 [1]): n.i. (n.i.: no inhibition detected (<30 % @ 100 μM))
Sirt3 inhibition (class) (Sirt3): n.i. (n.i.: no inhibition detected (<30 % @ 100 μM))

inhibition at 50 µM (Sirt1; [4]): 14%
IC50 (Sirt2 [1]): 7.9 ± 0.6 µM
IC50 (Sirt3): 9.5 ± 0.9 µM
Structure (SMILES): Cc1cc(O)cc(C)c1/N=N/c1cncc(C(N)=O)c1 [7 a]

melting point: 166.4 °C
inhibition at 50 µM (Sirt1; [4]): 19%
IC50 (Sirt2 [1]): 10.8 ± 0.6 µM
IC50 (Sirt3): 7.9 ± 0.5 µM
thermal Z→E isomerization (in words) ([2]; in acetonitrile): rapid thermal isomerization
Structure (SMILES): Cc1cc(/N=N/c2cncc(C(N)=O)c2)cc(C)c1O [7 b]

melting point: 250.2 °C
inhibition at 10 µM (Sirt1; [4]): 10%
inhibition at 10 µM (Sirt2 [1]): 62%
inhibition at 50 µM (Sirt3; @ 50 μM, read-out: Sirt3 inhibition, percent inhibition relative to controls): 39%
Structure (SMILES): COc1cc(/N=N/c2cncc(C(N)=O)c2)cc(OC)c1O [7 d]
